Consider 5 compounds from patent publication US7547532B2, “Three-dimensional structure of prostaglandin D synthase and utilization thereof” (Japan Science and Technology Agency, priority 2001, dated 2009).

Series [1] concerns allergic reaction. To be noted: known from Matsushita et al. 1998, various experimental models; cited from earlier work.
For series [2] the following is noted: cited from earlier work.
In series [3] the test system is sleep condition. To be noted: administered in the ventricle of the brain of a mouse; cited from earlier work.
Series [4] concerns the target hematopoietic PGDS (Homo sapiens, UniProt O60760). Put plainly: PGDS enzymatic activity: conversion of PGH2 to PGD2 (confirmation of inhibitors). To be noted: metal ion in center of PGDS dimer. The class given is biochemical. The source says:
After a candidate compound for inhibition of hematopoietic PGDS is thus selected, the selected compound is contacted with the enzyme in the presence of the substrate (prostaglandin H2) to confirm the compound can inhibit the enzymatic activity (Shimizu, T., Yamamoto, S., and Hayaishi, O. (1979). Purification and properties of prostaglandin D synthase from rat brain. J. Biol. Chem. 254, 5222-5228). The measurement of enzymatic activity is, for example, carried out as follows: The substrate [1-^14C]prostaglandin(PG)H2 is prepared by reacting [1-^14C]arachidonic acid with cyclooxygenase. Since PGH2 is easily decomposed in aqueous solution (half-life: about 5 minutes), it is dried and stored at a low temperature (−80° C.). […] After the development, radioactivity of PGD2 fraction and other fraction are measured and the enzyme activity is calculated from the ratio of conversion to PGD2.
Alternatively, enzyme reaction is carried out using commercially available non-labeled PGH2. After the reaction, PGH2 is decomposed to 12(S)-hydroxy-8,10-trans-5-cis-heptadecatrienolic acid with the treatment by FeCl2 before quantifying with reverse phase HPLC using 11-β-PGE2 as an internal standard or commercially available ELISA to quantify PGD2.

The target of series [5] is T1, human hematopoietic PGDS (Homo sapiens, UniProt O60760, N144M).
T1 construct: made in house; host or cells: Escherichia coli BL21 (DE-3), plasmid pT7-7hPGDS
Put plainly: Glutathione binding/affinity to PGDS with metal ion. To be noted: metal ion in center of PGDS dimer.

T1 sequence (O60760 2-199 N144M): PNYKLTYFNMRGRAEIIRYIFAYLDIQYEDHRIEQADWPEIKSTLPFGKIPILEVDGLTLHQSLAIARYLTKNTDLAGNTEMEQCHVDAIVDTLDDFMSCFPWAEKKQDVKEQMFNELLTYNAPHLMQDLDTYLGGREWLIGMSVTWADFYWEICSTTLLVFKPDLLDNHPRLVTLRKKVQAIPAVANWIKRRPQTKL
Chain of hematopoietic PGDS (O60760 whole entry): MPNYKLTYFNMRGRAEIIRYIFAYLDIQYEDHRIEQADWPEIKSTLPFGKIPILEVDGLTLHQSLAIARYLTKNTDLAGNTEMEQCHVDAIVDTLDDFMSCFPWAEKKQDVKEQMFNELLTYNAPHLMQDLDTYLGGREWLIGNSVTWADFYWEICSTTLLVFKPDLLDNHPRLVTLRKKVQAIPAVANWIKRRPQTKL

As to `c1ccc(C(OC2CCN(CCCc3nnn[nH]3)CC2)c2ccccc2)cc1` [HQL-79, 4-benzhydryloxy-1-{3-(1H-tetrazol-5-yl)-propyl}piperidine], the anti-allergic activity entry in series [1] is listed as “anti-allergic activity”.
Consider `CCCCC[C@H](O)/C=C/[C@@H]1[C@@H](C/C=C\CCCC(=O)O)[C@@H]2C[C@H]1OO2` [PGH2, prostaglandin H2], for which the “half-life in aqueous solution” value in series [2] is recorded as “about 5 minutes”.
Turning to `CCCCC[C@H](O)/C=C/[C@H]1C(=O)C[C@H](O)[C@@H]1C/C=C\CCCC(=O)O` [prostaglandin D2, Prostaglandin D2], in series [3], the effect on sleep result is “sleep is induced”.
For the compound Calcium, in series [4], the “effect on reaction rate of PGDS enzyme” value is listed as “increases the reaction rate of PGDS enzyme”. For the same compound, the “influence on glutathione binding” value in series [5] was “no influence on the glutathione binding”.
Take Magnesium: the “increase of affinity of glutathione to PGDS” value in series [5] was “more than 3 times”.
